Among the data in patent publication US9540377B2, “2,6,7,8 substituted purines as HDM2 inhibitors” (Merck Sharp & Dohme Corp., priority 2013, dated 2017) are IC50 values, retold here.

By IC50 is commonly meant the concentration that gives 50% inhibition. Lower therefore signals greater potency in that assay.

In one test the target is HDM2 (truncated, residues 17 to 125, containing p53 binding surface) (Homo sapiens (Human), UniProt Q00987). As to the kind of experiment: HDM2 FRET assay (inhibition of binding of FITC labeled p53-site peptide to HDM2). The conditions noted are these: Table 16. From the text: IC50 DETERMINATIONS: Dose-response curves were plotted from the inhibition data, from 10 point serial dilutions of inhibitory compounds. Concentration of compound was plotted against em520/Cem495 ratio signal. To generate IC50 values, the dose-response curves were fitted to a standard sigmoidal curve and IC50 values were derived by nonlinear regression analysis.
Sequence of HDM2 (truncated, residues 17 to 125, containing p53 binding surface) (Q00987 17-125): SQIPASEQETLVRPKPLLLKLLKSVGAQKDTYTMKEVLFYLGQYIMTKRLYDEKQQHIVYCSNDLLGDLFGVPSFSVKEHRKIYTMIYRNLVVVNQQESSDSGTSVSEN
`CO[C@@H]1CCN(c2nc3nc(-c4n[nH]c(=O)o4)nc(-c4cncc(Cl)c4)c3n2C[C@H]2CC[C@H](C)CC2)[C@@H](C)C1` (racemic) [Example 16.155, 5-{6-(5-chloropyridin-3-yl)-8-[(trans)-4-methoxy-2-methylpiperidin-1-yl]-7-[(trans-4-methylcyclohexyl)methyl]-7H-purin-2-yl}-1,3,4-oxadiazol-2(3H)-one] had an IC50 of 49.1 nM.

As to `COC(C)(C)C1CCCN1c1nc2nc(-c3noc(=O)[nH]3)nc(-c3cncc(Cl)c3)c2n1C[C@H]1CC[C@H](C)CC1` (single isomer, unassigned) [Example 16.73, 3-{6-(5-chloropyridin-3-yl)-8-[2-(1-methoxy-1-methylethyl)pyrrolidin-1-yl]-7-[(trans-4-methylcyclohexyl)methyl]-7H-purin-2-yl}-1,2,4-oxadiazol-5(4H)-one], the IC50 was found to be 1.97 nM.

As to `C[C@H]1CC[C@H](Cn2c(N3CCO[C@H]4CCCC[C@H]43)nc3nc(-c4noc(=O)[nH]4)nc(-c4cncc(Cl)c4)c32)CC1` (racemic) [Example 16.131, 3-{6-(5-chloropyridin-3-yl)-7-[(trans-4-methylcyclohexyl)methyl]-8-[(cis)-octahydro-4H-1,4-benzoxazin-4-yl]-7H-purin-2-yl}-1,2,4-oxadiazol-5(4H)-one], the IC50 came to 35 nM.

`C[C@H]1CC[C@H](Cn2c(N3CCCC4COCCC43)nc3nc(-c4n[nH]c(=O)o4)nc(-c4cncc(Cl)c4)c32)CC1` (single isomer, unassigned) [Example 16.122, 5-{6-(5-chloropyridin-3-yl)-8-(hexahydro-2H-pyrano[4,3-b]pyridin-1(5H)-yl)-7-[(trans-4-methylcyclohexyl)methyl]-7H-purin-2-yl}-1,3,4-oxadiazol-2(3H)-one]: the IC50 was determined as 203 nM.

The test is the same for the next values; noted with them: Table 23.
`COC(c1nc2nc(-c3n[nH]c(=O)o3)nc(-c3cncc(Cl)c3)c2n1C[C@H]1CC[C@H](C)CC1)C1CCCCC1` (mixture of isomers) [Example 23.22, 5-{6-(5-chloropyridin-3-yl)-8-[cyclohexyl(methoxy)methyl]-7-[(trans-4-methylcyclohexyl)methyl]-7H-purin-2-yl}-1,3,4-oxadiazol-2(3H)-one] registered an IC50 of 12 nM.

In the case of `C[C@H]1CC[C@H](Cn2c(C(O)C3CCCCC3)nc3nc(-c4noc(=O)[nH]4)nc(-c4cccc(Cl)c4)c32)CC1` (mixture of isomers) [Example 23.5, 3-{6-(3-chlorophenyl)-8-[cyclohexyl(hydroxy)methyl]-7-[(trans-4-methylcyclohexyl)methyl]-7H-purin-2-yl}-1,2,4-oxadiazol-5(4H)-one], the IC50 turned out to be 7.17 nM.

`CC(O)(c1nc2nc(-c3noc(=O)[nH]3)nc(-c3cccc(Cl)c3)c2n1C[C@H]1CC[C@H](C)CC1)C1CCCCC1` (mixture of isomers) [Example 23.10, 3-{6-(3-chlorophenyl)-8-(1-cyclohexyl-1-hydroxyethyl)-7-[(trans-4-methylcyclohexyl)methyl]-7H-purin-2-yl}-1,2,4-oxadiazol-5(4H)-one] yielded an IC50 of 15.6 nM.

Turning to `CC(C)(C)C(C)(F)c1nc2nc(-c3noc(=O)[nH]3)nc(-c3cncc(Cl)c3)c2n1C[C@H]1CC[C@H](C)CC1` (mixture of isomers) [Example 23.91, 3-{6-(5-chloropyridin-3-yl)-8-(1-fluoro-1,2,2-trimethylpropyl)-7-[(trans-4-methylcyclohexyl)methyl]-7H-purin-2-yl}-1,2,4-oxadiazol-5(4H)-one], the IC50 stood at 13 nM.

For the molecule `CC(F)(c1c(F)cccc1F)c1nc2nc(-c3n[nH]c(=O)o3)nc(-c3cncc(Cl)c3)c2n1C[C@H]1CC[C@H](C)CC1` (single isomer, unassigned) [Example 23.81, 5-{6-(5-chloropyridin-3-yl)-8-[1-(2,6-difluorophenyl)-1-fluoroethyl]-7-[(trans-4-methylcyclohexyl)methyl]-7H-purin-2-yl}-1,3,4-oxadiazol-2(3H)-one], the IC50 stood at 0.289 nM.

Take `CC(c1ccccc1F)c1nc2nc(-c3noc(=O)[nH]3)nc(-c3cncc(Cl)c3)c2n1C[C@H]1CC[C@H](C)CC1` (mixture of isomers) [Example 23.113, 3-{6-(5-chloropyridin-3-yl)-8-[1-(2-fluorophenyl)ethyl]-7-[(trans-4-methylcyclohexyl)methyl]-7H-purin-2-yl}-1,2,4-oxadiazol-5(4H)-one]: the IC50 amounted to 1.39 nM.

`CC(c1ccccc1C#N)c1nc2nc(-c3noc(=O)[nH]3)nc(-c3cncc(Cl)c3)c2n1C[C@H]1CC[C@H](C)CC1` (mixture of isomers) [Example 23.116, 2-{1-[6-(5-chloropyridin-3-yl)-7-[(trans-4-methylcyclohexyl)methyl]-2-(5-oxo-4,5-dihydro-1,2,4-oxadiazol-3-yl)-7H-purin-8-yl]ethyl}benzonitrile] registered an IC50 of 2.38 nM.

Take `CC(F)(c1ccccc1F)c1nc2nc(-c3n[nH]c(=O)o3)nc(-c3cncc(Cl)c3)c2n1C[C@H]1CC[C@H](C)CC1` (single isomer, unassigned) [Example 23.33, 5-{6-(5-chloropyridin-3-yl)-8-[1-fluoro-1-(2-fluorophenyl)ethyl]-7-[{trans-4-methylcyclohexyl)methyl]-7H-purin-2-yl}-1,3,4-oxadiazol-2(3H)-one]: the IC50 worked out at 0.453 nM.

For `CC(F)(c1ncccc1F)c1nc2nc(-c3noc(=O)[nH]3)nc(-c3cncc(Cl)c3)c2n1C[C@H]1CC[C@H](C)CC1` (single isomer, unassigned) [Example 23.99, 3-{6-(5-chloropyridin-3-yl)-8-[1-fluoro-1-(3-fluoropyridin-2-yl)ethyl]-7-[(trans-4-methylcyclohexyl)methyl]-7H-purin-2-yl}-1,2,4-oxadiazol-5(4H)-one], the IC50 is 0.315 nM.

`COc1ccccc1C(C)(OC)c1nc2nc(-c3n[nH]c(=O)o3)nc(-c3cncc(Cl)c3)c2n1C[C@H]1CC[C@H](C)CC1` (mixture of isomers) [Example 23.78, 5-{6-(5-chloropyridin-3-yl)-8-[1-methoxy-1-(2-methoxyphenyl)ethyl]-7-[(trans-4-methylcyclohexyl)methyl]-7H-purin-2-yl}-1,3,4-oxadiazol-2(3H)-one]: the IC50 was determined as 8.22 nM.

`CC1CCCCC1(F)c1nc2nc(-c3n[nH]c(=O)o3)nc(-c3cncc(Cl)c3)c2n1C[C@H]1CC[C@H](C)CC1` (single isomer, unassigned) [Example 23.82, 5-{6-(5-chloropyridin-3-yl)-8-(1-fluoro-2-methylcyclohexyl)-7-[(trans-4-methylcyclohexyl)methyl]-7H-purin-2-yl}-1,3,4-oxadiazol-2(3H)-one] registered an IC50 of 7.63 nM.

In turn, `COc1ccccc1C(C)(F)c1nc2nc(-c3noc(=O)[nH]3)nc(-c3cncc(Cl)c3)c2n1C[C@H]1CC[C@H](C)CC1` (single isomer, unassigned) [Example 23.26, 3-{6-(5-chloropyridin-3-yl)-8-[1-fluoro-1-(2-methoxyphenyl)ethyl]-7-[(trans-4-methylcyclohexyl)methyl]-7H-purin-2-yl}-1,2,4-oxadiazol-5(4H)-one] returned an IC50 of 5.37 nM.

Consider `CC(c1ccccc1F)c1nc2nc(-c3n[nH]c(=O)o3)nc(-c3cncc(Cl)c3)c2n1C[C@H]1CC[C@H](C)CC1` (mixture of isomers) [Example 23.114, 5-{6-(5-chloropyridin-3-yl)-8-[1-(2-fluorophenyl)ethyl]-7-[(trans-4-methylcyclohexyl)methyl]-7H-purin-2-yl}-1,3,4-oxadiazol-2(3H)-one], for which the IC50 worked out at 2.13 nM.

`COCC(C)(OC)c1nc2nc(-c3noc(=O)[nH]3)nc(-c3cncc(Cl)c3)c2n1C[C@H]1CC[C@H](C)CC1` (mixture of isomers) [Example 23.107, 3-{6-(5-chloropyridin-3-yl)-8-(1,2-dimethoxy-1-methylethyl)-7-[(trans-4-methylcyclohexyl)methyl]-7H-purin-2-yl}-1,2,4-oxadiazol-5(4H)-one] came in with an IC50 of 5.37 nM.

On to `C[C@H]1CC[C@H](Cn2c(C(O)C3CCCCC3)nc3nc(-c4n[nH]c(=O)o4)nc(-c4cccc(Cl)c4)c32)CC1` (mixture of isomers) [Example 23.7, 5-{6-(3-chlorophenyl)-8-[cyclohexyl(hydroxy)methyl]-7-[(trans-4-methylcyclohexyl)methyl]-7H-purin-2-yl}-1,3,4-oxadiazol-2(3H)-one], for which the IC50 is 20.2 nM.

The target in a further test is HDM2 (Homo sapiens (Human), UniProt Q00987). Briefly: FRET assay (FRET IC50 of Tables 1-11). In kind it is binding.
Sequence of HDM2 (Q00987 17-125): as above
Settings: not given
“6-{[(1R)-1-cyclopropylethyl]ammo}-8-phenyl-7-[4-(trifluoromethyl)benzyl]-7H-purine-2-carboxylic acid [Example 1.96]” yielded an IC50 of 371 nM.

As to `COc1ccc(C)cc1-c1nc2nc(C(=O)O)nc(N[C@H](C)C3CC3(F)F)c2n1Cc1ccc(C(F)(F)F)cc1` (stereo partly drawn) [Example 7.19, 6-{[(1R)-1-(2,2-difluorocyclopropyl)ethyl]amino}-8-(2-methoxy-5-methylphenyl)-7-[4-(trifluoromethyl)benzyl]-7H-purine-2-carboxylic acid], the midpoint of inhibition, the IC50, lay at 72.2 nM.

The same test, now with this note: Table 9.
Turning to `C[C@@H](Nc1nc(C(=O)O)nc2nc(N3CCCCC3Cc3ccccc3)n(Cc3ccc(C(F)(F)F)cc3)c12)C1CCC1` (stereo partly drawn) [Example 9.3, 8-(2-benzylpiperidin-1-yl)-6-{[(1R)-1-cyclobutylethyl]amino}-7-[4-(trifluoromethyl)benzyl]-7H-purine-2-carboxylic acid], the IC50 was determined as 20.7 nM.
